# Like-named read-outs stand apart in the source and are kept apart here.
# Biological target: T1, human TRPA1 (Homo sapiens, UniProt O75762)
# T1 construct: expressed in transfected cells
# Assay: Cell-based functional intracellular calcium ([Ca2+]i) assay, Fluo-4/Fluo-8, FlexStation, challenge with reference TRPA1 agonist (FFA, AITC or 4-HNE)
# Outline: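 Doxycycline-induced (1 μg/ml) HEK293 expressing human TRPA1, with 5 μM ruthenium red during induction, loaded with Fluo-4 or Fluo-8 plus 2 mM probenecid; FlexStation read at 20-25° C, sometimes with 0.1% BSA.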
# [1] = HEK293 cells expressing human TRPA1, IC50 class after addition of reference TRPA1 agonist (FFA, AITC or 4-HNE), read-out: human TRPA1-HEK Activity
# T1 sequence (O75762 whole entry): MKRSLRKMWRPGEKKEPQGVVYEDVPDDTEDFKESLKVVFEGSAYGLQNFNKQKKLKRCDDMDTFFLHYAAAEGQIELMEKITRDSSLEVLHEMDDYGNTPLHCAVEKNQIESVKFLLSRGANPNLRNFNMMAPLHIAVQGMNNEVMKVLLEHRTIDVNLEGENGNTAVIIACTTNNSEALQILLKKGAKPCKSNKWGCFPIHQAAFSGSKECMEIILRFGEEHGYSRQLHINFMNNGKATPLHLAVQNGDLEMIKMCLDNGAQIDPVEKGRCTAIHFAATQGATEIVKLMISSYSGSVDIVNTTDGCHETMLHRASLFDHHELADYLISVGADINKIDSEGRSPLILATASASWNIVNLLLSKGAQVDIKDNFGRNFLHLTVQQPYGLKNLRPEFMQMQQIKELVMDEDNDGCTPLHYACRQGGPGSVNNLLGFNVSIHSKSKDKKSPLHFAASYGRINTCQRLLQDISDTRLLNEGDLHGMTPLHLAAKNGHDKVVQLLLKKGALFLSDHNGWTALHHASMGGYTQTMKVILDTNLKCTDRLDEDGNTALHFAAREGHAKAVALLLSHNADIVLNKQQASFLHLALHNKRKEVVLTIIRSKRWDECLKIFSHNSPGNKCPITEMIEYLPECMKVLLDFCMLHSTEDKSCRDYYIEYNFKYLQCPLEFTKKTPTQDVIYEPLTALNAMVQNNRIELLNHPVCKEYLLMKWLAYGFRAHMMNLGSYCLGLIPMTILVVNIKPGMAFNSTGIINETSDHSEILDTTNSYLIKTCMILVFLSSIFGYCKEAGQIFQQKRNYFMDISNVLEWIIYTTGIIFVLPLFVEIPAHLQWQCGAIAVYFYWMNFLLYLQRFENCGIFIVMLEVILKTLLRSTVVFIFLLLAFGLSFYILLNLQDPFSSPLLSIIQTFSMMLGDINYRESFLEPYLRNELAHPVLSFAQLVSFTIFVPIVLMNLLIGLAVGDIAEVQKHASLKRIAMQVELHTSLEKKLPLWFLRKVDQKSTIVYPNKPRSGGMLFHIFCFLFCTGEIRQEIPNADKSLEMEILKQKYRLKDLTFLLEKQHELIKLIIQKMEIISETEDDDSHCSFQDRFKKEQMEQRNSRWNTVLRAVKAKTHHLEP
Structure (SMILES),IC50 [1],IC50
O=C(c1cc(-c2cccnc2)n(-c2ccc(C(F)(F)F)c(F)c2)n1)N1CCC2(CC1)C(=O)NCN2c1ccc(F)c(F)c1 [Compound 181],0.001 to 5 µM,–
O=C(c1cc(-c2cccnc2)n(-c2ccc(C(F)(F)F)c(F)c2)n1)N1CCC(n2c(=S)[nH]c3ccc(F)c(F)c32)CC1 [Compound 182],0.001 to 5 µM,–
O=C(c1cc(-c2cccnc2)n(-c2ccc(C(F)(F)F)c(F)c2)n1)N1CCC2(CC1)C(=O)NCN2c1ccc(I)cc1 [Compound 183],> 25 µM,–
O=C(c1cc(-c2cccnc2)n(-c2ccc(C(F)(F)F)c(F)c2)n1)N1CCC2(CC1)C(=O)NCN2c1ccc(Br)cc1 [Compound 184],> 25 µM,–
O=C(c1cc(-c2cccnc2)n(-c2ccc(C(F)(F)F)c(F)c2)n1)N1CCC2(CC1)C(=O)NC(=O)N2c1ccc(F)cc1 [Compound 185],–,5 to 25 µM
O=C(c1cc(-c2cccnc2)n(-c2ccc(C(F)(F)F)c(F)c2)n1)N1CCC2(CC1)C(=O)NCN2c1cc(F)c(F)c(F)c1 [Compound 186],0.001 to 5 µM,–
O=C(c1cc(-c2cccnc2)n(-c2ccc(C(F)(F)F)c(F)c2)n1)N1CCC2(CC1)C(=O)NCN2c1ccc(F)c(C(F)(F)F)c1 [Compound 187],0.001 to 5 µM,–
O=C(c1cc(-c2cccnc2)n(-c2ccc(C(F)(F)F)c(F)c2)n1)N1CCC2(CC1)C(=O)NCN2c1ccc(OC(F)F)cc1 [Compound 188],0.001 to 5 µM,–
O=C(c1cc(-c2cccnc2)n(-c2ccc(C(F)(F)F)c(F)c2)n1)N1CCC2(CC1)C(=O)NCN2c1ccc(F)c(Cl)c1 [Compound 189],0.001 to 5 µM,–
N#Cc1ccc2[nH]c(=O)n(C3CCN(C(=O)c4cc(-c5cccnc5)n(-c5ccc(C(F)(F)F)c(F)c5)n4)CC3)c2c1 [Compound 190],0.001 to 5 µM,–
O=C(c1cc(-c2cccnc2)n(-c2ccc(C(F)(F)F)c(F)c2)n1)N1CCN2C(=O)OC[C@@H]2C1 [Compound 191],0.001 to 5 µM,–
O=C(c1cc(-c2cccnc2)n(-c2ccc(C(F)(F)F)c(F)c2)n1)N1CCN2C(=O)OC3(CC3)[C@@H]2C1 [Compound 192],–,0.001 to 5 µM
O=C(c1cc(-c2cccnc2)n(-c2ccc(C(F)(F)F)c(F)c2)n1)N1C2CCC1CC1(C2)C(=O)NCN1c1ccc(F)cc1 (centres unmarked) [Compound 193],–,0.001 to 5 µM
CC1CC(n2c(=O)[nH]c3ccc(F)c(F)c32)CC(C)N1C(=O)c1cc(-c2cccnc2)n(-c2ccc(C(F)(F)F)c(F)c2)n1 (centres unmarked) [Compound 194],5 to 25 µM,–
Cc1cc(N2CNC(=O)C23CCN(C(=O)c2cc(-c4cccnc4)n(-c4ccc(C(F)(F)F)c(F)c4)n2)CC3)cc(C)c1F [Compound 195],0.001 to 5 µM,–
O=C(c1cc(-c2cccnc2)n(-c2ccc(C(F)(F)F)c(F)c2)n1)N1CCC(n2c(=O)[nH]c3ccc(F)c(C(F)(F)F)c32)CC1 [Compound 196],0.001 to 5 µM,–
COc1cc(F)ccc1N1CNC(=O)C12CCN(C(=O)c1cc(-c3cccnc3)n(-c3ccc(C(F)(F)F)c(F)c3)n1)CC2 [Compound 197],5 to 25 µM,–
O=C(c1cc(-c2cccnc2)n(-c2cc(F)c(F)c(F)c2)n1)N1CCC2(CC1)C(=O)NCN2c1ccc(I)cc1 [Compound 200],0.001 to 5 µM,–
O=C(c1cc(-c2cccnc2)n(-c2cc(F)c(F)c(F)c2)n1)N1CCC2(CC1)C(=O)NCN2c1ccc(Br)cc1 [Compound 201],0.001 to 5 µM,–
Cc1c(F)ccc2[nH]c(=O)n(C3CCN(C(=O)c4cc(-c5cccnc5)n(-c5cc(F)c(F)c(F)c5)n4)CC3)c12 [Compound 202],0.001 to 5 µM,–

Structure (SMILES),IC50 [1],IC50
CC1CC(n2c(=O)[nH]c3ccc(F)c(F)c32)CC(C)N1C(=O)c1cc(-c2cccnc2)n(-c2cc(F)c(F)c(F)c2)n1 (centres unmarked) [Compound 203],> 25 µM,–
Cc1cc(N2CNC(=O)C23CCN(C(=O)c2cc(-c4cccnc4)n(-c4cc(F)c(F)c(F)c4)n2)CC3)cc(C)c1F [Compound 204],0.001 to 5 µM,–
CC1CN(C(=O)c2cc(-c3cccnc3)n(-c3cc(F)c(F)c(F)c3)n2)CC(C)C1n1c(=O)[nH]c2ccc(F)c(F)c21 (centres unmarked) [Compound 207],> 25 µM,–
O=C(c1cc(-c2cccnc2)n(-c2cc(F)c(F)c(F)c2)n1)N1CCC(n2c(=O)[nH]c3cccnc32)CC1 [Compound 208],0.001 to 5 µM,–
O=C(c1nn(-c2cc(F)c(F)c(F)c2)c(-c2cccnc2)c1Br)N1CCC2(CC1)C(=O)NCN2c1ccc(F)cc1 [Compound 210],0.001 to 5 µM,–
O=C(c1nn(-c2cc(F)c(F)c(F)c2)c(-c2cccnc2)c1Br)N1CCC(n2c(=O)[nH]c3ccc(F)c(F)c32)CC1 [Compound 211],0.001 to 5 µM,–
N#Cc1ccc(-n2nc(C(=O)N3CCC(n4c(=O)[nH]c5ccc(F)c(F)c54)CC3)cc2-c2cccnc2)cc1 [Compound 212],0.001 to 5 µM,–
N#Cc1ccc(-n2nc(C(=O)N3CCC4(CC3)C(=O)NCN4c3ccc(F)c(F)c3)cc2-c2cccnc2)cc1 [Compound 213],0.001 to 5 µM,–
O=C(c1cc(-c2cccnc2)n(-c2ccc(OC(F)(F)F)c(F)c2)n1)N1CCC2(CC1)C(=O)NCN2c1ccc(F)c(F)c1 [Compound 214],0.001 to 5 µM,–
O=C(c1cc(-c2cccnc2)n(-c2ccc(OC(F)(F)F)c(F)c2)n1)N1CCC(n2c(=O)[nH]c3ccc(F)c(F)c32)CC1 [Compound 215],0.001 to 5 µM,–
N#Cc1ccc(-n2nc(C(=O)N3CCC4(CC3)C(=O)NCN4c3ccc(F)c(F)c3)cc2-c2cccnc2)cc1F [Compound 216],0.001 to 5 µM,–
CC(C)(C)c1ccc(-n2nc(C(=O)N3CCC4(CC3)C(=O)NCN4c3ccc(F)c(F)c3)cc2-c2cccnc2)cc1 [Compound 217],0.001 to 5 µM,–
O=C(c1cc(-c2cccnc2)n(-c2ccc(C(F)(F)F)cc2Cl)n1)N1CCC2(CC1)C(=O)NCN2c1ccc(F)c(F)c1 [Compound 218],0.001 to 5 µM,–
O=C(c1cc(-c2cccnc2)n(-c2c(Cl)cc(C(F)(F)F)cc2Cl)n1)N1CCC2(CC1)C(=O)NCN2c1ccc(F)c(F)c1 [Compound 219],0.001 to 5 µM,–
O=C(c1cc(-c2cccnc2)n(-c2ccc(OC(F)(F)F)cc2)n1)N1CCC(n2c(=O)[nH]c3ccc(F)c(F)c32)CC1 [Compound 220],0.001 to 5 µM,–
O=C(c1cc(-c2cccnc2)n(-c2ccc(C(F)(F)F)c(F)c2F)n1)N1CCC(n2c(=O)[nH]c3ccc(F)c(F)c32)CC1 [Compound 222],0.001 to 5 µM,–
O=C(c1cc(-c2cccnc2)n(-c2cc(F)c(C(F)(F)F)cc2F)n1)N1CCC(n2c(=O)[nH]c3ccc(F)c(F)c32)CC1 [Compound 223],0.001 to 5 µM,–
N#Cc1ccc(-n2nc(C(=O)N3CCC(n4c(=O)[nH]c5ccc(F)c(F)c54)CC3)cc2-c2cccnc2)cc1F [Compound 224],0.001 to 5 µM,–
Cc1cc(OC(F)(F)F)ccc1-n1nc(C(=O)N2CCC3(CC2)C(=O)NCN3c2ccc(F)c(F)c2)cc1-c1cccnc1 [Compound 225],0.001 to 5 µM,–
Cc1cc(OC(F)(F)F)ccc1-n1nc(C(=O)N2CCC3(CC2)C(=O)NCN3c2ccc(F)cc2)cc1-c1cccnc1 [Compound 226],0.001 to 5 µM,–

Structure (SMILES),IC50 [1],IC50
Cc1cc(OC(F)(F)F)ccc1-n1nc(C(=O)N2CCC(n3c(=O)[nH]c4ccc(F)c(F)c43)CC2)cc1-c1cccnc1 [Compound 227],0.001 to 5 µM,–
N#Cc1ccc2c(c1)[nH]c(=O)n2C1CCN(C(=O)c2cc(-c3cccnc3)n(-c3ccc(C(F)(F)F)c(F)c3)n2)CC1 [Compound 228],0.001 to 5 µM,–
N#Cc1ccc2c(c1)[nH]c(=O)n2C1CCN(C(=O)c2cc(-c3cccnc3)n(-c3cc(F)c(F)c(F)c3)n2)CC1 [Compound 229],0.001 to 5 µM,–
O=C1Nc2ccc(F)cc2C2(CCN(C(=O)c3cc(-c4cccnc4)n(-c4ccc(C(F)(F)F)c(F)c4)n3)CC2)O1 [Compound 230],0.001 to 5 µM,–
O=C1Nc2ccc(F)cc2C2(CCN(C(=O)c3cc(-c4cccnc4)n(-c4cc(F)c(F)c(F)c4)n3)CC2)O1 [Compound 231],0.001 to 5 µM,–
N#Cc1cccc2[nH]c(=O)n(C3CCN(C(=O)c4cc(-c5cccnc5)n(-c5cc(F)c(F)c(F)c5)n4)CC3)c12 [Compound 232],0.001 to 5 µM,–
N#Cc1c(F)ccc2[nH]c(=O)n(C3CCN(C(=O)c4cc(-c5cccnc5)n(-c5cc(F)c(F)c(F)c5)n4)CC3)c12 [Compound 233],0.001 to 5 µM,–
N#Cc1cc2[nH]c(=O)n(C3CCN(C(=O)c4cc(-c5cccnc5)n(-c5ccc(C(F)(F)F)c(F)c5)n4)CC3)c2cc1F [Compound 234],0.001 to 5 µM,–
N#Cc1cc2[nH]c(=O)n(C3CCN(C(=O)c4cc(-c5cccnc5)n(-c5cc(F)c(F)c(F)c5)n4)CC3)c2cc1F [Compound 235],0.001 to 5 µM,–
O=C(c1cc(-c2cccnc2)n(-c2ccc(C(F)(F)F)cc2C(F)(F)F)n1)N1CCC(n2c(=O)[nH]c3ccc(F)c(F)c32)CC1 [Compound 236],0.001 to 5 µM,–
O=C(c1cc(-c2cccnc2)n(-c2ccc(I)cc2)n1)N1CCC(n2c(=O)[nH]c3ccc(F)c(F)c32)CC1 [Compound 237],0.001 to 5 µM,–
O=C(c1cc(-c2ccc(Cl)nc2)n(-c2ccc(C(F)(F)F)c(F)c2)n1)N1CCC2(CC1)C(=O)NCN2c1ccc(F)cc1 [Compound 238],0.001 to 5 µM,–
O=C(c1cc(-c2ccc(Cl)nc2)n(-c2ccc(C(F)(F)F)c(F)c2)n1)N1CCC(n2c(=O)[nH]c3ccc(F)c(F)c32)CC1 [Compound 239],0.001 to 5 µM,–
N#Cc1ccc2[nH]c(=O)n(C3CCN(C(=O)c4cc(-c5cccnc5)n(-c5ccc(F)c(C(F)(F)F)c5)n4)CC3)c2c1 [Compound 240],0.001 to 5 µM,–
O=C(c1cc(-c2cccnc2)n(-c2ccc(F)c(C(F)(F)F)c2)n1)N1CCC(n2c(=O)[nH]c3ccc(F)c(F)c32)CC1 [Compound 241],0.001 to 5 µM,–
Cc1cc(N2CNC(=O)C23CCN(C(=O)c2cc(-c4cccnc4)n(-c4ccc(F)c(C(F)(F)F)c4)n2)CC3)cc(C)c1F [Compound 242],0.001 to 5 µM,–
N#Cc1cccc2[nH]c(=O)n(C3CCN(C(=O)c4cc(-c5cccnc5)n(-c5ccc(C(F)(F)F)c(F)c5)n4)CC3)c12 [Compound 243],> 25 µM,–
N#Cc1c(F)ccc2[nH]c(=O)n(C3CCN(C(=O)c4cc(-c5cccnc5)n(-c5ccc(C(F)(F)F)c(F)c5)n4)CC3)c12 [Compound 244],5 to 25 µM,–
N#Cc1cc(C(F)(F)F)ccc1-n1nc(C(=O)N2CCC(n3c(=O)[nH]c4ccc(F)c(F)c43)CC2)cc1-c1cccnc1 [Compound 245],> 25 µM,–

# — US9951046B2, “TRPA1 modulators” (Algomedix, Inc., priority 2014, dated 2018)
